The values that follow come from ChEMBL document CHEMBL4402591, “Imidazo[1,2-a]pyridine Derivatives as Aldehyde Dehydrogenase Inhibitors: Novel Chemotypes to Target Glioblastoma Stem Cells” (J Med Chem, 2020).

As a reminder, the IC50 is the point on the concentration scale where inhibition reaches its midpoint. In general, Ki refers to a dissociation constant, usually derived from enzyme kinetics or from competition with a known ligand.

For test [1], the target named is T1, Retinaldehyde dehydrogenase 3 (Homo sapiens, UniProt P47895).
T1 sequence (P47895 whole entry): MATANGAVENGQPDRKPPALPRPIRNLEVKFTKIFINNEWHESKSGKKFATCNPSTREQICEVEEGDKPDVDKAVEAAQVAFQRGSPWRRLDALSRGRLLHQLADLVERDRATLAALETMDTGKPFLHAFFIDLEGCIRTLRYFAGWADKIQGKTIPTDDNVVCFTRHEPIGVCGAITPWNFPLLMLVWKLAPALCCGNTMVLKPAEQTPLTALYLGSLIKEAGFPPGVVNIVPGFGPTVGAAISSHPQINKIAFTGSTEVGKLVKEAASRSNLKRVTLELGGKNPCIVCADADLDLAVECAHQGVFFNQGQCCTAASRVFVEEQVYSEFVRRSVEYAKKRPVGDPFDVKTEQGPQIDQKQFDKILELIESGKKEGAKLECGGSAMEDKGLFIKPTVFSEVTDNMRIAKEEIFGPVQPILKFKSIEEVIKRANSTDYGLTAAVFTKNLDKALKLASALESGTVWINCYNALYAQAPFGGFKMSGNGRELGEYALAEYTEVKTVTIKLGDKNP
Kind of test: Inhibition of recombinant human 6His-tagged ALDH1A3 expressed in Escherichia coli BL21(DE3) using acetaldehyde as substrate preincubated for 5 mins followed by substrate addition by spectrometric assay.

A short description of test [2]: Antiproliferative activity against human MES267 cells measured after 72 hrs by alamar blue assay. The test is classed as functional, cell-based. In general terms: Resazurin is reduced to fluorescent resorufin, in cell work by metabolically active cells.
Test [3] is described as follows: Antiproliferative activity against human PN157 cells measured after 72 hrs by alamar blue assay. It is filed as functional, cell-based.
A short description of test [4]: Antiproliferative activity against human MES374 cells measured after 72 hrs by alamar blue assay. It is filed as functional, cell-based.
In test [5] the target is T2, Aldehyde dehydrogenase 1A1 (Homo sapiens, UniProt P00352).
T2 sequence (P00352 whole entry): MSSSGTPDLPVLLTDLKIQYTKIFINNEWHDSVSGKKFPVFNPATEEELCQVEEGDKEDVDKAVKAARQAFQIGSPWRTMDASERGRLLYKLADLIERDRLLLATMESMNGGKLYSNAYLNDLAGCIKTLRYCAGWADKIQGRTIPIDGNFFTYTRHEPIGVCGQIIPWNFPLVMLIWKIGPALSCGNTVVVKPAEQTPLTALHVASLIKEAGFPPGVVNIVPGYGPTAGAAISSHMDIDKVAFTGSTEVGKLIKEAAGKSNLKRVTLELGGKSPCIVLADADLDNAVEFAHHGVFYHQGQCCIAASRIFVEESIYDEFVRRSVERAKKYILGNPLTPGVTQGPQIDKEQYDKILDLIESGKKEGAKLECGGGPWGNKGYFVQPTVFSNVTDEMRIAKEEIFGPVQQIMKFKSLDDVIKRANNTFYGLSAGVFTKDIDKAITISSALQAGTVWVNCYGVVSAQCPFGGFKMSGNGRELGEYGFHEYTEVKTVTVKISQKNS
Kind of test: Inhibition of recombinant human 6His-tagged ALDH1A1 expressed in Escherichia coli BL21(DE3) using acetaldehyde as substrate preincubated for 5 mins followed by substrate addition by spectrometric assay.

The target in test [6] is T3, Retinal dehydrogenase 2 (Homo sapiens, UniProt O94788).
T3 sequence (O94788 whole entry): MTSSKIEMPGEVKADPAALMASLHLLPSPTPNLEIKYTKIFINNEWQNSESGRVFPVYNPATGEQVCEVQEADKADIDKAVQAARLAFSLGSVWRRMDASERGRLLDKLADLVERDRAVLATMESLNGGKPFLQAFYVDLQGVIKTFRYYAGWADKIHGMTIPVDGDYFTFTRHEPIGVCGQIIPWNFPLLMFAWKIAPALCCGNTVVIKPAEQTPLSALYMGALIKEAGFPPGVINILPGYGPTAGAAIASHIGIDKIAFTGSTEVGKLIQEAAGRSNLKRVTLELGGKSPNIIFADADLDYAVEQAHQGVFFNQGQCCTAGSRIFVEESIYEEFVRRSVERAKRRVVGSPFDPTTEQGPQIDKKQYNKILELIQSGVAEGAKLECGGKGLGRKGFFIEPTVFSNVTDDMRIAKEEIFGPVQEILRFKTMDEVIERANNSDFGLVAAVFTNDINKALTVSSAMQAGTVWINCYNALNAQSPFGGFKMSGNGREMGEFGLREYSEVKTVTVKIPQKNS
The experiment in a line: Inhibition of recombinant human 6His-tagged ALDH1A2 expressed in Escherichia coli BL21(DE3) using acetaldehyde as substrate preincubated for 5 mins followed by substrate addition by spectrometric assay.

The target in test [7] is T1, Retinaldehyde dehydrogenase 3. The experiment in a line: Competitive inhibition of recombinant human 6His-tagged ALDH1A3 expressed in Escherichia coli BL21(DE3) using varying level of acetaldehyde as substrate preincubated for 5 mins followed by substrate addition by Michaelis-Menten plot analysis.

Take `Cc1ccc(-c2cn3cc(-c4ccccc4)ccc3n2)cc1`: in test [1], the concentration for half-maximal inhibition (IC50) was 11.3 µM.
Turning to `COc1cccc(-c2cn3cc(-c4ccc(F)cc4)ccc3n2)c1`, the IC50 was found to be 0.35 µM in test [2], 21.2 µM in test [1] and 1.51 µM in test [3].
For `COc1ccc(-c2ccc3nc(-c4ccccc4)cn3c2)cc1`, in that order: 0.66 µM, 17.8 µM and 2.66 µM.
For `COc1ccc(-c2ccc3nc(-c4ccc(OC)cc4)cn3c2)cc1`, the IC50 in test [1] stood at 11.4 µM.
Consider `Fc1ccc(-c2ccc3nc(-c4ccccc4)cn3c2)cc1`, for which the IC50 in test [4] is 0.00258 nM; in test [2] it was 0.0634 µM; in test [1], 22.8 µM; in test [3], 0.0252 µM.
Turning to `COc1ccc(-c2cn3cc(-c4cc(OC)cc(OC)c4)ccc3n2)cc1`, the IC50 in test [5] was determined as 198 µM; in test [1], 3.5 µM.
Regarding `COc1cccc(-c2cn3cc(-c4ccc(Cl)cc4)ccc3n2)c1`, the IC50 is 13.5 nM in test [4], 0.0712 µM in test [2], 6.4 µM in test [1] and 0.0296 µM in test [3].
Regarding `Clc1ccc(-c2ccc3nc(-c4ccc(Br)cc4)cn3c2)cc1`, the IC50 in test [5] is 17.3 µM.
With `COc1ccc(-c2cn3cc(-c4ccc(OC)c(OC)c4)ccc3n2)cc1`, the IC50 in test [1] amounted to 8.3 µM.
On to `c1ccc(-c2ccc3nc(-c4ccccc4)cn3c2)cc1`, for which the 50% inhibitory concentration (IC50) in test [6] turned out to be 54.6 µM; in test [4], 2.74 nM; in test [5], 19.6 µM; in test [2] it was 0.0469 µM; in test [1] it was 4.7 µM; in test [3] it was 0.151 µM. Besides, the Ki in test [7] worked out at 0.54 µM.
As to `Cc1ccc(-c2cn3cc(-c4ccc(F)cc4)ccc3n2)cc1`, the IC50 in test [1] was determined as 92.9 µM.
Take `Clc1ccc(-c2ccc3nc(-c4ccccc4)cn3c2)cc1`: the IC50 came out at 0.0196 nM in test [4]; 68.8 µM in test [5]; 0.0215 µM in test [2]; 45.8 µM in test [1]; 0.0531 µM in test [3].
`CSc1ccc(-c2ccc3nc(-c4ccccc4)cn3c2)cc1`: the IC50 in test [1] was 27.1 µM.
Consider `COC(=O)c1ccc(-c2ccc3nc(-c4ccccc4)cn3c2)cc1`, for which the IC50 in test [5] stood at 96.9 µM; in test [2] it was 0.823 µM; in test [1] it was 27.4 µM; in test [3], 0.822 µM.
Turning to `N#Cc1cccc(-c2ccc3nc(-c4ccccc4)cn3c2)c1`, the IC50 in test [1] was 5.3 µM.
Same read-out and setting: as for `N#Cc1ccc(-c2ccc3nc(-c4ccccc4)cn3c2)cc1`, the figure is 5.2 µM.
